Patent US9040713B2, “Methods of managing blood sugar levels and compositions related thereto” (EMORY UNIVERSITY, priority 2010, dated 2015)
Values joined by “and” are separate entries in the source; they are usually repeats but may differ in a detail not shown here. Equal values may be shown once.

Tests used:
GST-IRTK = target: T1, GST-IRTK (Homo sapiens, UniProt P06213); test: Partial proteolysis; assay type: binding; conditions: compound 50 μM or ATP-γ-S 5 μM; limited trypsin (or chymotrypsin) digestion
T1 construct: GST-tagged IRTK (GST-IRTK, a.a. 1011-1382); purchased Invitrogen
Protocol: 200 ng GST-IRTK was subjected to limited trypsin digestion in the presence or absence of 50 μM compound with 50 mM tris-HCL (pH8.2) and 20 mM CacCl2. The sample was separated on a SDS-polyacrylamide gel and stained by silver.
Several small molecules bind to the intracellular kinase domain of IR (IRTK) and provoke its activation. DDN might also interact with the IRTK to activate IR. To test this possibility, an UV-absorption spectra analysis was performed using recombinant IRTK. While the GST-tagged IRTK (GST-IRTK, a.a. 1011-1382) had no absorption from 200 nm to 800 nm, addition of DDN, but not its structural related analogue naptho[2,3-d]thiazole-4,9-dione-2-[(4-chlorophenyl)amino] […] Partial proteolysis analysis was also performed to confirm the DDN/IRTK interaction. Recombinant GST-tagged IRTK was incubated with either DMSO or DDN, followed by limited trypsin digestions. In DMSO treatment, GST-IRTK was digested into several smaller fragments of various molecular weights. […] Whereas a band of ˜37 kDa presented strongly in the ATP-γ-S incubated IRTK, a band of ˜30 kDa was found in the control samples but attenuated in the ATP-γ-S-treated sample.
To evaluate if 4524-E7 directly binds to the IR kinase domain, a partial proteolysis assay was performed with recombinant IRTK domain using trypsin or chymotrypsin, which was used before to characterize the interaction between IR and its small molecular ligand DAQ B1. Recombinant GST-tagged IRTK with either DMSO, 50 μM 4524-E7 or ATP-γ-S, were incubated and followed by limited trypsin or chymotrypsin digestion. Under DMSO treatment, GST-IRTK was quickly digested by both trypsin and chymotrypsin into several small fragments with various molecular weights (FIG. 10B). […] To test whether 4524-E7 selectively elevates IR kinase activities, an in vitro IR, IGFR, and EGFR kinase assays were performed using histone as the substrate.

p85α−/− MEF cells = test: [3H] 2-deoxyglucose transport in p85α knockout MEF cells; assay type: cell-based, mouse; conditions: insulin 100 nM 15 min or compound 5 μM 30 min
Protocol: Insulin signaling in the cell lysates were tested by immunoblotting. (B) DDN stimulates glucose uptake. […] [3H]2-deoxyglucose was then added, and the cells were further incubated for 10 min. [3H]2-deoxyglucose uptake by adipocytes was measured by scintillation counting (*: P<0.05 **: P<0.01 vs control, Student's t-test, n=3). (C) DDN synergizes insulin's signaling. […] Cell lysates were then prepared for Western blot using specific antibodies as indicated. […] 3H-2-deoxyglucose was then added, and the cells were further incubated for 10 min. 3H-2-deoxyglucose uptake by adipocytes was measured by scintillation counting (*: P<0.05; **: P<0.01, Student's t-test, n=3). (E) IR is necessary for DDN to induce ERK phosphorylation. […] Cell lysates were analyzed by Western blot. […] The uptake of 3H-2-deoxyglucose was monitored by liquid scintillation counting (*: P<0.05; **: P<0.01 vs control, Student's t-test, n=3).
(A) 4524-E7 activates IR phosphorylation and its downstream signaling in 3T3-L1 adipocytes. […] The amount of [3H]2-deoxyglucose taken by adipocytes was measured. […] Results were normalized to DMSO-treated cells and expressed as mean±S.E.M. (*: P<0.05; **:P<0.01, Student's t-test, n=3). […] Cells lysates were collected and analyzed by Western blot. […] 2-deoxyglucose was monitored by liquid scintillation counter. Results were expressed as mean±S.E.M. (*: P<0.05; **:P<0.01, Student's t-test, n=3). […]

IR = IR (Homo sapiens, UniProt P06213); test: Immunoblotting of IR phosphorylation and downstream signaling in CHO-IR cells; assay type: cell-based; parameters: expressed in transfected cells; host or cells: CHO (CHO-IR, gift from Dr. Nicholas Webster, UCSD)
Protocol: The cell lysates were analyzed by immunoblotting with anti-phospho-IR antibodies, or immunoprecipitated by PY20 and analyzed using anti-IR and anti-IRS-1, respectively. […] The cell lysates were analyzed by immunoblotting with anti-pIGF-1R and anti-pEGFR. […]
A cell-based ELISA assay was developed with an IR stably transfected Chinese Hamster Ovary (CHO-IR) cell line. […] The cell lysates were subjected to the sandwich ELISA using immobilized anti-phosphotyrosine antibody and anti-IR antibody.

Sequence of IR (P06213 763-1382 limits assumed): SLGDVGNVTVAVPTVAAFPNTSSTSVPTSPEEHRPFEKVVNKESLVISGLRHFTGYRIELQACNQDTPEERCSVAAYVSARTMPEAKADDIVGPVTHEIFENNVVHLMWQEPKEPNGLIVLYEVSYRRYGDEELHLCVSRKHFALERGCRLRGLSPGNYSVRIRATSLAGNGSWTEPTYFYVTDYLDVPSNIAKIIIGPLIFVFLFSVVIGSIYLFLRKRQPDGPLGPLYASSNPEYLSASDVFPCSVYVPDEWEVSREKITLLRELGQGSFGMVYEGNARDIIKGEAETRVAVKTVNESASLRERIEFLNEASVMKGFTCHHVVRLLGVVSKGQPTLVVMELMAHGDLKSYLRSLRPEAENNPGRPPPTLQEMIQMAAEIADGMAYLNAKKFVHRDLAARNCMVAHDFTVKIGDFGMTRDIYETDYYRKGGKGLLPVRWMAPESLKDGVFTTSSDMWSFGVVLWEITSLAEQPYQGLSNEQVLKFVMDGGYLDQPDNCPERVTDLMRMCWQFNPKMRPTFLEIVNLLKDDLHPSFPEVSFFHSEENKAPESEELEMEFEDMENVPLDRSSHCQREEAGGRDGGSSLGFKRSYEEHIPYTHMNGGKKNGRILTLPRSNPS
Sequence of IR (P06213 28-758 limits assumed): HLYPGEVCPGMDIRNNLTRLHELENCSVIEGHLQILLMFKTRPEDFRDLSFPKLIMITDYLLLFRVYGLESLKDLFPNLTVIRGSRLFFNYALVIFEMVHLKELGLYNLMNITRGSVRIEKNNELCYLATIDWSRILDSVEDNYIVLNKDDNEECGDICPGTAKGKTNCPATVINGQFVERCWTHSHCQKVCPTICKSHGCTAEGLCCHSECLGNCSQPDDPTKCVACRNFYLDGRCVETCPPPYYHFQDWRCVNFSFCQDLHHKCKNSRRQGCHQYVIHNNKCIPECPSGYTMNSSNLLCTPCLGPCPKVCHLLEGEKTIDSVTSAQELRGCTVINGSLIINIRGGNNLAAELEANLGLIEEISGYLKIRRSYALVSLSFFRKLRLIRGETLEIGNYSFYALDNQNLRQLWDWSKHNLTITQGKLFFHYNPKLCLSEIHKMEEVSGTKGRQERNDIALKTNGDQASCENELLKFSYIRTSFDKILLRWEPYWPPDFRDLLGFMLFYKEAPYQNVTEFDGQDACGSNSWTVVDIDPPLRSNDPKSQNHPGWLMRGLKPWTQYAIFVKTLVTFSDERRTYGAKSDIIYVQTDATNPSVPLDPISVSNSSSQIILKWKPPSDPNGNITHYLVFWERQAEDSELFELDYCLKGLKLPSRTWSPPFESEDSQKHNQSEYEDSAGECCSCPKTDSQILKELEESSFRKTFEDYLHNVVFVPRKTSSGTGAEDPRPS
T1 sequence (P06213 1011-1382): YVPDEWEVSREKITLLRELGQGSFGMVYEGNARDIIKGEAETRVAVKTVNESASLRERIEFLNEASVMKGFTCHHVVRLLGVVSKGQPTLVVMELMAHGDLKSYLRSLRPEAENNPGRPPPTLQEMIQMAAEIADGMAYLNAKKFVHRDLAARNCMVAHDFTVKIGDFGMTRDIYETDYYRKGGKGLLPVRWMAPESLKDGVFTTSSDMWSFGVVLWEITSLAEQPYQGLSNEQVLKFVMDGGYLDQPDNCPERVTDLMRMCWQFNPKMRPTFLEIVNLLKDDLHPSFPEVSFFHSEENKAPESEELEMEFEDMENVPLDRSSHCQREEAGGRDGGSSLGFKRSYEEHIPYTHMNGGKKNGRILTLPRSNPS

Compound	protection of IRTK from proteolysis (GST-IRTK)	[3H]-2-deoxyglucose uptake (p85α−/− MEF cells)	concentration activating IR cascade strongly and specifically (IR)	tyrosine phosphorylation on the IR (IR; 5 μM, 15 min)	IR tyrosine phosphorylation (IR; 5 μM, 30 min)	concentration at which Erk1/2 activation was detected (IR; 15 min)	concentration elevating Akt phosphorylation (IR; 15 min)	time at which IR phosphorylation starts (IR; 5 μM)	tyrosine phosphorylation of IRS-1 (IR; 5 μM, 15 min)	tyrosine phosphorylation of the IR β subunit in Y1146 and Y1158/1162/1163 (IR; 5 μM, 15 min)	concentration stimulating the IR signal cascades (IR; DDN or CSN 30 min, insulin 15 min)
O=C1c2ccccc2C(=O)C2SC(Nc3ccc(Cl)cc3)=NC12 (stereo not shown) [4524-E7, 2-((4-chlorophenyl)amino)naphtho[2,3-d]thiazole-4,9(3aH,9aH)-dione]	more intact IRTK was observed	neither insulin nor 4524-E7 was able to induce glucose uptake	1 to 2.5 µM	increased the tyrosine phosphorylation on the IR	triggered IR tyrosine phosphorylation	≥ 5 µM	0.5 µM	–	–	–	–
CC(=O)Oc1ccc(OC(C)=O)c2c1C(=O)C(Cl)=C(Cl)C2=O [DDN, 5,8-diacetyloxy-2,3-dichloro-1,4-naphthoquinone]	protected IRTK against trypsin digestion	–	–	–	–	–	–	5 to 15 min and 5 min	also increased	strongly stimulated	5 µM
insulin: insulin, used as positive control	–	neither insulin nor 4524-E7 was able to induce glucose uptake	–	–	–	–	–	–	–	–	–
